From patent US12022832B2, “Compounds and methods for treating nematode infections” (The Governing Council of The University of Toronto, priority 2018, dated 2024)
Read-outs that look alike come from different tables or passages of the source.

Columns and labels:
[1] = test system: C. elegans (L1); assay: C. elegans L1 viability, three day protocol; type: in vivo, Caenorhabditis elegans; details: for EC (80% dead): Caenorhabditis elegans, read-out: C. elegans (L1 viability): lowest concentration tested in which at least 80% of animals were dead
[2] = test system: M. incognita (J2); assay: M. incognita J2 viability in vitro; type: in vivo, Meloidogyne incognita; details: assay done using 45 uM; for M. incognita (J2 viability in vitro): concentration giving >20% and <80% death: 48 or 72 hours, other compounds
[3] = test system: C. elegans; assay: C. elegans acute motor (rubber-band, convulsion/paralysis) phenotype on solid substrate; type: in vivo, Caenorhabditis elegans; details: for C. elegans acute motor phene: concentration at which 10-50% of the animals exhibit convulsion/paralysis phenotypes / C. elegans acute motor phene: lowest concentration at which 50% of the young adult animals exhibit convulsion/paralysis phenotypes: solid substrate; for C. elegans acute motor phene: concentration at which 10-50% of the animals exhibit convulsion/paralysis phenotypes: 80 minutes, compounds 55-12-6, 55-12-9, 55-12-12, 55-12-21, 55-12-23; for C. elegans acute motor phene: lowest concentration at which 50% of the young adult animals exhibit convulsion/paralysis phenotypes: 80 minutes of incubation
Description: Worms are scored for the indicated phenotype (see legend); convulsions along the circumferential axis is characterized as the ‘shaker’ phenotype in C. elegans; convulsions along the anterior-posterior axis is characterized as the ‘rubber-band’ phenotype in C. elegans. 18 young-adult animals were scored at each time-point for rubber-band (animals spontaneously contract or do so upon touch on the nose with a platinum wire), hyperactive movement (observing rapid lateral nose movement) and shaker (spontaneous circumferential rotations). […] Data are showing the mean number of animals with each phenotype.
If a penetrant phenotype is observed, a dose-response analysis is performed; the EC50 is shown.
Each compound was added to the MYOB substrate before pouring to achieve desired concentration after diffusion through the media. The final concentration of dimethyl sulfoxide (DMSO) in each of the wells was […]. Young adult or fourth-staged larval worms are transferred into each well using a platinum wire pick.
˜25 young adult animals of each indicated strain were picked using a platinum wire onto 2% MYOB agar containing the indicated drug condition with 1% DMSO. […] 18 animals were scored per trial; data are the mean response of 2-3 replicates showing the standard error of the mean.

[4] = test system: M. incognita (eggs); assay: M. incognita egg-hatch assay; type: in vivo, Meloidogyne incognita; details: 45 uM of each compound, ~50 eggs per well; effect threshold not stated
[5] = test system: C. elegans (dauer); assay: C. elegans dauer viability; type: in vivo, Caenorhabditis elegans; details: relative to no-drug controls; for C. elegans (dauer viability): lowest concentration tested in which at least 80% of animals were dead: 72 hours
[6] = test system: C. elegans (adult); assay: C. elegans adult viability; type: in vivo, Caenorhabditis elegans; details: 72 hours, relative to no-drug controls
[7] = test system: P. pacificus (L1); assay: P. pacificus L1 viability; type: in vivo, Pristionchus pacificus; details: 72 hours; for P. pacificus (L1 viability): lowest concentration tested in which at least 80% of animals were dead: relative to no-drug controls
[8] = test system: P. hermaphrodita (L1); assay: P. hermaphrodita L1 viability; type: in vivo, Phasmarhabditis hermaphrodita; details: 72 hours; for P. hermaphrodita (L1 viability): lowest concentration tested in which at least 80% of animals were dead: relative to no-drug controls; for P. hermaphrodita (L1 viability): lowest concentration tested in which greater than 20% of animals were dead: compounds 55-6, 55-12-20, 55-12-22
[9] = test system: M. incognita; assay: M. incognita Quick Soil Test (tomato); type: in vivo, Meloidogyne incognita; details: 45 uM, ~2000 J2 per tomato plant, worms in soil 4 days; for M. incognita (Quick Soil Test): concentration giving >80% killing: J2s counted in root tissue; for M. incognita (Quick Soil Test): concentration giving 10-20% killing: other compounds
[10] = 72 hours, relative to no-drug controls

CCCc1ccc(-c2ccc(OC(F)F)cc2)cn1 [IIIaa (wact-55-12-7), 5-(4-(difluoromethoxy)phenyl)-2-propylpyridine]
EC (80% dead) [1, 10]: 30 µM | M. incognita (J2 viability in vitro): concentration giving >80% death ([2]; 48 or 72 hours of incubation): 45 µM

CCCc1ccc(-c2ccc(OC(F)F)cn2)cc1 [IIIbb (wact-55-12-8), 5-(difluoromethoxy)-2-(4-propylphenyl)pyridine]
EC (80% dead) ([1]; 72 h): 60 µM | M. incognita (J2 viability in vitro): concentration giving >20% and <80% death [2]: np

CCCc1ccc(-c2ccc(OC(F)F)nc2)cc1 [IIIcc (wact-55-12-9), 2-(difluoromethoxy)-5-(4-propylphenyl)pyridine]
C. elegans acute motor phene: concentration at which 10-50% of the animals exhibit convulsion/paralysis phenotypes [3]: 60 μM | EC (80% dead) ([1]; 72 h): 60 µM | M. incognita (J2 viability in vitro): concentration giving >20% and <80% death [2]: np | M. incognita (Egg Hatch Rate) [4]: np

CCc1ccc(-c2ccc(OC(F)F)cc2)nc1 [IIIdd (wact-55-12-10), 2-(4-(difluoromethoxy)phenyl)-5-ethylpyridine]
EC (80% dead) [1, 10]: 30 µM | C. elegans (dauer viability): lowest concentration tested in which at least 80% of animals were dead [5]: 30 µM | C. elegans (adult viability): lowest concentration tested in which at least 80% of animals were dead [6]: np | P. pacificus (L1 viability): lowest concentration tested in which at least 80% of animals were dead [7]: 15 µM | P. hermaphrodita (L1 viability): lowest concentration tested in which at least 80% of animals were dead [8]: 15 µM

Cc1ccc(-c2ccc(OC(F)F)cc2)nc1 [IIIee (wact-55-12-11), 2-(4-(difluoromethoxy)phenyl)-5-methylpyridine]
EC (80% dead) [1, 10]: 60 µM | M. incognita (J2 viability in vitro): concentration giving >20% and <80% death [2]: np

FC(F)Oc1ccc(-c2ccccn2)cc1 [IIIff (wact-55-12-12), 2-(4-(difluoromethoxy)phenyl)pyridine]
C. elegans acute motor phene: concentration at which 10-50% of the animals exhibit convulsion/paralysis phenotypes [3]: 60 μM | C. elegans (L1 viability): lowest concentration tested in which at least 80% of animals were dead [1, 10]: np | C. elegans (dauer viability): lowest concentration tested in which at least 80% of animals were dead [5]: np | C. elegans (adult viability): lowest concentration tested in which at least 80% of animals were dead [6]: np | P. pacificus (L1 viability): lowest concentration tested in which at least 80% of animals were dead [7]: 60 µM | P. hermaphrodita (L1 viability): lowest concentration tested in which at least 80% of animals were dead [8]: 60 µM | M. incognita (J2 viability in vitro): concentration giving >20% and <80% death [2]: 45 µM | M. incognita (Quick Soil Test): concentration giving >80% killing [9]: 45 µM

CC#Cc1ccc(-c2ccc(OC(F)F)cc2)nc1 [IIIhh (wact-55-12-14), 2-(4-(difluoromethoxy)phenyl)-5-(prop-1-yn-1-yl)pyridine]
EC (80% dead) [1, 10]: 7.5 µM | M. incognita (J2 viability in vitro): concentration giving >20% and <80% death [2]: np

NCc1ccc(-c2ccc(OC(F)F)cc2)nc1 [IIIkk (wact-55-12-17), (6-(4-(difluoromethoxy)phenyl)pyridin-3-yl)methanamine]
C. elegans acute motor phene: lowest concentration at which 50% of the young adult animals exhibit convulsion/paralysis phenotypes [3]: np | C. elegans (L1 viability): lowest concentration tested in which at least 80% of animals were dead [1, 10]: np | M. incognita (J2 viability in vitro): concentration giving >20% and <80% death [2]: np | M. incognita (Egg Hatch Rate) [4]: np | M. incognita (Hatching Mobility) [4]: np

CCCc1cccc(-c2ccc(OC(F)F)cc2)n1 [IIInn (wact-55-12-20), 2-(4-(difluoromethoxy)phenyl)-6-propylpyridine]
C. elegans acute motor phene: lowest concentration at which 50% of the young adult animals exhibit convulsion/paralysis phenotypes [3]: np | C. elegans (L1 viability): lowest concentration tested in which at least 80% of animals were dead [1, 10]: np | C. elegans (dauer viability): lowest concentration tested in which at least 80% of animals were dead [5]: np | C. elegans (adult viability): lowest concentration tested in which at least 80% of animals were dead [6]: np | P. pacificus (L1 viability): lowest concentration tested in which greater than 20% of animals were dead ([7]; compound 55-12-20): 30 µM | P. hermaphrodita (L1 viability): lowest concentration tested in which greater than 20% of animals were dead [8]: 60 µM

CCCc1ccnc(-c2ccc(OC(F)F)cc2)c1 [IIIoo (wact-55-12-21), 2-(4-(difluoromethoxy)phenyl)-4-propylpyridine]
C. elegans acute motor phene: concentration at which 10-50% of the animals exhibit convulsion/paralysis phenotypes [3]: 60 μM | C. elegans (L1 viability): lowest concentration tested in which greater than 20% of animals were dead ([1]; 72 hours, relative to no-drug controls, compounds 55-11, 55-12-21, 55-12-23): 60 µM | C. elegans (dauer viability): lowest concentration tested in which at least 80% of animals were dead [5]: np | C. elegans (adult viability): lowest concentration tested in which at least 80% of animals were dead [6]: np | P. pacificus (L1 viability): lowest concentration tested in which at least 80% of animals were dead [7]: 30 µM | P. hermaphrodita (L1 viability): lowest concentration tested in which at least 80% of animals were dead [8]: 30 µM | M. incognita (J2 viability in vitro): concentration giving >20% and <80% death [2]: np | M. incognita (Quick Soil Test): concentration giving >80% killing [9]: 45 µM | M. incognita (Egg Hatch Rate) [4]: np

CCCc1cccnc1-c1ccc(OC(F)F)cc1 [IIIpp (wact-55-12-22), 2-(4-(difluoromethoxy)phenyl)-3-propylpyridine]
C. elegans acute motor phene: lowest concentration at which 50% of the young adult animals exhibit convulsion/paralysis phenotypes [3]: np | C. elegans (L1 viability): lowest concentration tested in which at least 80% of animals were dead [1, 10]: np | C. elegans (dauer viability): lowest concentration tested in which at least 80% of animals were dead [5]: np | C. elegans (adult viability): lowest concentration tested in which at least 80% of animals were dead [6]: np | P. pacificus (L1 viability): lowest concentration tested in which at least 80% of animals were dead [7]: np | P. hermaphrodita (L1 viability): lowest concentration tested in which greater than 20% of animals were dead [8]: 60 µM

CCCc1cnc(-c2ccc(OC(F)F)cc2)nc1 [IIIss (wact-55-12-25), 2-(4-(difluoromethoxy)phenyl)-5-propylpyrimidine]
M. incognita (J2 viability in vitro): concentration giving >20% and <80% death [2]: np

CC(C)Cc1ccc(-c2ccc(OC(F)F)cc2)nc1 [IIItt (wact-55-12-26), 2-(4-(difluoromethoxy)phenyl)-5-isobutylpyridine]
EC (80% dead) [1, 10]: 30 µM | M. incognita (J2 viability in vitro): concentration giving >20% and <80% death [2]: np | M. incognita (Quick Soil Test): concentration giving 10-20% killing [9]: 45 uM | M. incognita (Hatching Mobility) [4]: np

CCCCc1ccc(-c2ccc(OC(F)F)cc2)nc1 [IIIuu (wact-55-12-27), 5-butyl-2-(4-(difluoromethoxy)phenyl)pyridine]
EC (80% dead) [1, 10]: 15 µM | M. incognita (J2 viability in vitro): concentration giving >20% and <80% death [2]: np | M. incognita (Egg Hatch Rate) [4]: np

CCCCc1ccc(-c2ccc(OC)cc2)nc1 [IIIw (wact-55-12-28), 5-butyl-2-(4-methoxyphenyl)pyridine]
EC (80% dead) [1, 10]: 15 µM | M. incognita (J2 viability in vitro): concentration giving >20% and <80% death [2]: 45 µM | M. incognita (Quick Soil Test): concentration giving >80% killing [9]: 45 µM

CCCc1ccc(-c2ccc(SC(F)F)cc2)nc1 [IIIy (wact-55-12-5), 2-(4-((difluoromethyl)thio)phenyl)-5-propylpyridine]
EC (80% dead) [1, 10]: 30 µM | M. incognita (J2 viability in vitro): concentration giving >20% and <80% death [2]: np

CCCc1ccc(-c2ccc(OC(F)F)cc2)cc1 [IIIz (wact-55-12-6), 4-(difluoromethoxy)-4′-propyl-1,1′-biphenyl]
C. elegans acute motor phene: concentration at which 10-50% of the animals exhibit convulsion/paralysis phenotypes [3]: 60 μM | EC (80% dead) [1, 10]: 30 µM | C. elegans (dauer viability): concentration where 10-20% death is exhibited ([5]; compounds 55-2, 55-8, 55-9, 55-12-6): 60 μM | C. elegans (adult viability): lowest concentration tested in which at least 80% of animals were dead [6]: np | P. hermaphrodita (L1 viability): lowest concentration tested in which at least 80% of animals were dead [8]: 7.5 µM | M. incognita (J2 viability in vitro): concentration giving >20% and <80% death [2]: np | M. incognita (Quick Soil Test): concentration giving 10-20% killing [9]: 45 uM | M. incognita (Egg Hatch Rate) [4]: np

CCCCCCCCCCCCCC(=O)O[C@@H]1[C@@H](C)[C@@]2(O)[C@@H](C=C(CO)C[C@]3(O)C(=O)C(C)=C[C@@H]23)[C@@H]2C(C)(C)[C@]12OC(C)=O [PMA, phorbol myristate acetate, reference compound]
induction of rubber-band (RB) convulsions ([3]; in vivo): fail to induced a RB phenotype
